Measured values taken from patent publication US20250262336A1, “[177LU] LUTETIUM-PSMA I&T COMPOSITION AND DOSIMETRY, KIT, METHOD OF MAKING, AND METHOD OF USING THEREOF” (Curium US LLC, priority 2023, published 2025).
Where “and” joins values, the source holds several entries; their conditions need not be identical. Equal values may be shown once.

Test: Cycle 1 plasma PK (gamma counting of plasma, bi-exponential fit)
Format: in vivo, human
Description: Additionally, for PK assessment, whole blood samples were collected at six timepoints (Pre-Infusion, 1 h, 4 h, 24 h, 48 h, and 168 h) and processed to extract plasma. All plasma samples were gamma counted locally for analysis of pharmacokinetics.
PK plasma samples were collected at pre-Infusion, 1 h, 4 h, 24 h, 48 h, and 168 h, and counted for radioactivity. Blood samples were first centrifuged to extract plasma, and then the radioactivity in plasma was counted in a gamma counter.
Whole blood samples were collected as detailed in the protocol Schedule of Events i.e. pre-injection, and then at 1 h, 4 h, 24 h, 48 h, and 168 h post-injection. The samples were first centrifuged to separate plasma, and the radioactivity in the plasma was then measured using a gamma counter. Plasma concentrations were subsequently fitted with a bi-exponential function to derive outcome parameters such as the half-life and clearance rate of the radiopharmaceutical in the plasma.
For each sample, collect sufficient sample volume for triplicate aliquots to meet the measurement requirements of your institution's gamma counter and perform measurements according to standard procedure. Blood will be processed and plasma will be measured on the gamma counter, as described in the following subsections.
All blood samples drawn must be aliquoted 3 times, labeled appropriately, and stored per standard procedure for later measurement of plasma in the qualified gamma counter. All samples will be counted as a group for each patient for each Cycle, no later than 24 hours following the final sample collection.
Collect 5 ml of blood in a BD PPT system (Plasma Protein Preservation Tube-draw volume of 5 mL).
Centrifuge at 18-25° C. at 1100 g for 10 min. The resulting supernatant is designated plasma.
Gamma Counter Measurements: All patient samples must be counted for 60 seconds, with a counting energy window of 102-229 keV.

[1] = Cycle 1, plasma, patient 42-030 excluded

O=C(O)CC[C@H](NC(=O)N[C@@H](CCCCNC(=O)CCCCCCC(=O)NCCCC[C@@H](NC(=O)[C@@H](Cc1ccccc1)NC(=O)[C@@H](Cc1ccc(O)c(I)c1)NC(=O)CC[C@H](C(=O)O)N1CCN(CC(=O)O)CCN(CC(=O)O)CCN(CC(=O)O)CC1)C(=O)O)C(=O)O)C(=O)O [^177Lu-PSMA-I&T, (3S,7 S,26R,29R,32R,37R)-29-benzyl-32-(4-hydroxy-3-iodobenzyl)-5,13,20,28,31,34-hexaoxo-37-(4,7,10-tris(carboxymethyl)-1,4,7,10-tetraazacyclododecan-1-yl)-4,6,12,21,27,30,33-heptaazaheptatriacontane-1,3,7,26,37-pentacarboxylic acid; lutetium-177 (III), metal not drawn]
Time of Peak Concentration (Cycle 1, plasma, individual patients, time of first sample): 53.00 min and 60.00 min (6×) and 51.00 min (2×) and 58.00 min and 61.00 min (2×) and 50.00 min and 63.00 min and 57.00 min and 55.00 min and 52.00 min (2×) and 68.00 min and 71.00 min and 65.00 min and 33.00 min and 40.00 min and 69.00 min and 56.00 min and 127.00 min and 47.00 min
Peak Concentration Value (Cycle 1, plasma, individual patients, value at first sample): 0.04 fIA/L (10×) and 0.03 fIA/L (4×) and 0.05 fIA/L (7×) and 0.01 fIA/L and 0.06 fIA/L (2×) and 0.02 fIA/L and 0.07 fIA/L (2×)
AUC Total, Mean [1]: 22.77 fIA/L × min
AUC Total, max [1]: 37.86 fIA/L × min
AUC Total, median [1]: 20.84 fIA/L × min
AUC Total, min [1]: 3.07 fIA/L × min
Peak Concentration Value, Mean [1]: 0.04 fIA/L
Peak Concentration Value, max [1]: 0.07 fIA/L
Peak Concentration Value, median [1]: 0.04 fIA/L
Peak Concentration Value, min [1]: 0.01 fIA/L
Time of Peak Concentration [1]: 33.00 min
Time of Peak Concentration, Mean [1]: 59.19 min
Time of Peak Concentration, max [1]: 127.00 min
Time of Peak Concentration, median [1]: 59.00 min
Vc, Mean [1]: 20.29 L
Vc, max [1]: 111.78 L
Vc, median [1]: 16.33 L
Vc, min [1]: 9.92 L
time to peak, patient 80-007 (cycle 1, first post-administration sample acquired with a delay): 127 min
